These results are taken from patent publication US6867192B1, “Compounds useful in the treatment of inflammatory diseases” (priority 1998, dated 2005).

Starred links: 1 amine or outer side, 2 acyl side, 3 side chain; linkers in the order of their positions; H or OH if unused. Residues, ends and D or L forms follow the SMILES beside them. Groups on a side chain read outwards from the residue. *: point of attachment. Morpholide = C1CN(*)CCO1; Cbz = O=C(OCc1ccccc1)*; CO = O=C([*:1])[*:2]

This assay has as its target T1, integrin VLA-4, expressed on the Jurkat J6 (human lymphoblast cell line) cell membrane with VCAM-1 (Homo sapiens, UniProt P05556+P13612).
T1 construct: integrin VLA-4, expressed on the Jurkat J6 (human lymphoblast cell line) cell membrane; endogenous in cells; host or cells: Jurkat J6 cells (integrin). zzVCAM-1 was made in house in Drosophila melanogaster S2 cells
The assay can be described thus: Jurkat J6/VCAM-1 adhesion assay. The class given is cell-based. Particulars: Jurkat J6 cell adhesion to VCAM-1, 1 mM MnCl2; mean of n experiments. The method, then: (1) Jurkat J6/VCAM-1 Adhesion Assay
This assay was used to investigate the interaction of the integrin VLA-4, expressed on the Jurkat J6 (human lymphoblast cell line) cell membrane with VCAM-1. Polystyrene 96-well microtitre plates were coated with human immunoglobulin G (IgG; Sigma Chemicals, UK, Product No. 14506) at a concentration of 0.05 mg ml^−1 in bicarbonate buffer (36 mM NaHCO3 and 22 mM Na2CO3, prepared in Dulbecco's phosphate buffered saline at pH 9.8 (PBS); Sigma Chemicals, UK, Product No. 14190-094) for 2 hours at 37° C. This solution was then aspirated and the plates were washed twice with PBS.
VCAM-1 was prepared by cloning its constituent seven domains into a Drosophila expression system with a zz (Protein A) tag. This zzVCAM-1 was then expressed from Drosophila melanogaster S2 cell culture, induced with copper. Protease inhibitors were added and the culture supernatant was clarified either by filtration through a 0.2 μm filter or by centrifugation. The zzVCAM-1 was then purified from this clarified medium using an IgG agarose column, equilibrated with either 20 mM sodium phosphate pH 7.2 alone or in the presence of 0.5M sodium chloride. Elution of zzVCAM-1 from the column was mediated using 3M ammonium thiocyanate, which was subsequently removed using a G25 desalting column, equilibrated with 20 mM sodium phosphate, pH 7.2. The purified zzVCAM-1 was then concentrated to a small volume (Amicon stirred cell concentrators) until a concentration of 62.5 ng ml^−1 was obtained, calculated using the extinction coefficient value.
This solution of zzVCAM-1 was then incubated overnight at 4° C. in the IgG coated microtitre plates with 3% bovine serum albumin (BSA) in PBS, followed by aspiration and two further washes with PBS. A concentration of the Jurkat J6 cells (6×10^6 cels ml^−1), grown in cell media RPMI 1640 (HyClone Ltd, Product No. B-9106-L) supplemented with 10% heat inactivated fetal calf serum (FCS; Gibco BRL, Product No. 10099-075) and 2 mM L-glutamine, were labelled with 10 μM of the fluorescent dye, 2′, 7′-bis(2-carboxyethyl)-5-(e6)-carboxyfluorescein acetoxymethyl ester (BCECF-AM; Molecular Probes Inc, Product No. B-1150) at 37° C. for 10 minutes. The excess dye was then removed by centrifugation at 500×g for 5 minutes and the cells were resuspended at a concentration of 1.2×10^7 cells ml^−1 in Hank's balanced salt solution (HBSS; Gibco BRL, Product No. 14190-094).
Equal volumes of compounds (dissolved in an appropriate solvent and diluted in HBSS containing 1 mM MnCl2) and the labelled Jurkat J6 cells, were added to the VCAM-1 coated plates and adhesion was allowed to proceed for 30 minutes at 37° C. Non, or loosely adhered cells, were removed by inversion of the plate and blotted with tissue paper. Two washes with PBS and further blotting were then performed, before the addition of 2% detergent (Triton-X®; Sigma Chemicals UK, Product No. X100). Counting was undertaken in a Wallac Viktor™ Fluorimeter, where low fluorescence values were indicative of compounds which had inhibited adhesion. All samples were assayed in singlicate and the following four parameter curve fit, shown by Equation (I) was applied: [formula]
Where a is the minimum, b is the Hill slope, c is the IC50 and d is the maximum. (Maximum and minimum values are those compared to adhesion in the absence of compound and in the presence of the dipotassium salt of 2 mM EDTA; Sigma Chemicals, UK, Product No. ED2P). Data is presented as the mean pIC50 with the standard error of the mean of n experiments.

T1 sequence (P13612 34-1032): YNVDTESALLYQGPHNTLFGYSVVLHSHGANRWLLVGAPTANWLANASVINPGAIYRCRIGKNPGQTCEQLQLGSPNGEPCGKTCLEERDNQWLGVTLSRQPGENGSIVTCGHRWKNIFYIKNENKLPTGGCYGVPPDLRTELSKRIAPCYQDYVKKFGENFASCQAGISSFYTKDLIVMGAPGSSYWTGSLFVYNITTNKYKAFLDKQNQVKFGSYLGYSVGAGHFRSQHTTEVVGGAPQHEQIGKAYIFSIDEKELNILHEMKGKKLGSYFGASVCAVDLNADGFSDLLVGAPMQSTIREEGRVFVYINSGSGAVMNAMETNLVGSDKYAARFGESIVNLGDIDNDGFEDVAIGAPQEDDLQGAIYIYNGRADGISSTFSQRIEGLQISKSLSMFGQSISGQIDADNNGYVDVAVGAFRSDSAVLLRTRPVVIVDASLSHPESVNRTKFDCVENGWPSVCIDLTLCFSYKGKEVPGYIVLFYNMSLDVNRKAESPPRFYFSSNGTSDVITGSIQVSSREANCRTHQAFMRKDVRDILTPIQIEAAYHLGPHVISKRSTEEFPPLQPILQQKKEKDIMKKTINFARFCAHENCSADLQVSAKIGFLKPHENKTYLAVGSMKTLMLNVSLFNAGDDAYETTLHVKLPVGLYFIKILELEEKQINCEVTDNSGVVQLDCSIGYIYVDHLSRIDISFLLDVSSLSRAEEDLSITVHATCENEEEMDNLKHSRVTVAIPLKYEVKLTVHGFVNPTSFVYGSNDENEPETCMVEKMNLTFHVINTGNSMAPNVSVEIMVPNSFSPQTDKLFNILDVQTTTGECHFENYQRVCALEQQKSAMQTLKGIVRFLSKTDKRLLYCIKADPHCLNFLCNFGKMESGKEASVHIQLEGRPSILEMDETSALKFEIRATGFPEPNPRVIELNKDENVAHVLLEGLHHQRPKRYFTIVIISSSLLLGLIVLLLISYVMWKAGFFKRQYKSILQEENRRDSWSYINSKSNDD
T1 sequence (P05556 21-798): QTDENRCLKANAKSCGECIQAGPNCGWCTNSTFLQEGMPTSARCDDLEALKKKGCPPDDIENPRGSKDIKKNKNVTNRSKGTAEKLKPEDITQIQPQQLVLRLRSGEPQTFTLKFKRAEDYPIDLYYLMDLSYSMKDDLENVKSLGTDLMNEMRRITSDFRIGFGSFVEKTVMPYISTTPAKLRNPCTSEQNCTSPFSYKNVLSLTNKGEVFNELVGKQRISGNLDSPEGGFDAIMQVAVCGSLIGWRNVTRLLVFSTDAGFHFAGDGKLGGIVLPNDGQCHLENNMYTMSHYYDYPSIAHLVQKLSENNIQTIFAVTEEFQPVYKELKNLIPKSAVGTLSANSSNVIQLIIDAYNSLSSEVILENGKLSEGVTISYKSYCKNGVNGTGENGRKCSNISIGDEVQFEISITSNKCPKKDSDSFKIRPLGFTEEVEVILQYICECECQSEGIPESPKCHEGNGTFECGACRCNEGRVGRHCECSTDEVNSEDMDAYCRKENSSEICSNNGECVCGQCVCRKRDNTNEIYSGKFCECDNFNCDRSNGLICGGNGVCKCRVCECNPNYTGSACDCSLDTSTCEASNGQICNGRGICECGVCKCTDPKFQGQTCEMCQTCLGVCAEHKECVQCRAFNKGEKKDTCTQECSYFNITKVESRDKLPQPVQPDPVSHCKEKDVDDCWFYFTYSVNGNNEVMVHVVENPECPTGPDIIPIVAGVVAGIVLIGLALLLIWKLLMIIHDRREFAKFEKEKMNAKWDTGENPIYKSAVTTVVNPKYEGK

As for `CC(C)C[C@H](NC(=O)c1cccc2c1oc1ccccc12)C(=O)N[C@@H](Cc1ccc(OC(=O)N2CCC(C(=O)N3CCCCC3)CC2)cc1)C(=O)O` [Example 31, (2S)-2-({(2S)-2-[(Dibenzo[b,d]furan-4-ylcarbonyl)amino]-4-methylpentanoyl}amino)-3-[4-({[4-(1-piperidinylcarbonyl)-1-piperidinyl]carbonyl}oxy)phenyl]propanoic acid], the IC50 was 25.7 nM. The compound `CC(C)C[C@H](NC(=O)COc1ccc2ccccc2c1Br)C(=O)N[C@@H](Cc1ccc(OC(=O)N2CCN(C(=O)c3ccco3)CC2)cc1)C(=O)O` [Example 44, (2S)-2-{[(2S)-2-({2-[(1-Bromo-2-naphthyl)oxy]acetyl}amino)-4-methylpentanoyl]amino}-3-[4-({[4-(2-furoyl)-1-piperazinyl]carbonyl}oxy)phenyl]propanoic acid] had a half-maximal inhibitory concentration (IC50) of 24 nM. In turn, `CC(C)C[C@H](NC(=O)COc1cc2ccccc2cc1C(=O)N1CCCCC1)C(=O)N[C@@H](Cc1ccc(OC(=O)N2CCC(NC(=O)Cc3ccccc3)CC2)cc1)C(=O)O` [Example 2, (2S)-2-({(2S)-4-Methyl-2-[(2-{[3-(1-piperidinylcarbonyl)-2-naphthyl]oxy}acetyl)amino]pentanoyl}amino)-3-{4-[({4-[(2-phenylacetyl)amino]-1-piperidinyl}carbonyl)oxy]phenyl}propanoic acid] gave an IC50 of 9.33 nM. As for `CC(C)C[C@H](NC(=O)OCc1ccccc1)C(=O)N[C@@H](Cc1ccc(OC(=O)N2CCOCC2)cc1)C(=O)O` [Example 40, (2S)-2-[((2S)-2-{[(Benzyloxy)carbonyl]amino}-4-methylpentanoyl)amino]-3-{4-[(4-morpholinylcarbonyl)oxy]phenyl}propanoic acid] (Cbz-Leu-Tyr([CO-Morpholide])-OH), the midpoint of inhibition, the IC50, lay at 9.12 nM. This IC50 and that of the compound before are within 1.5-fold of each other.

`CC(C)C[C@H](NC(=O)COc1ccc(C(N)=O)cc1)C(=O)N[C@@H](Cc1ccc(OC(=O)N2CCC(C(N)=O)CC2)cc1)C(=O)O` [Example 7, (2S)-2-{[(2S)-2-({2-[4-(Aminocarbonyl)phenoxy]acetyl}amino)-4-methylpentanoyl]amino}-3-[4-({[4-(aminocarbonyl)-1-piperidinyl]carbonyl}oxy)phenyl]propanoic acid] showed an IC50 of 2.63 nM. Compared with the last compound, the IC50 is about 3.5-fold lower.

`CC(C)C[C@H](NC(=O)COc1cc2ccccc2cc1C(=O)N1CCCCC1)C(=O)N[C@@H](Cc1ccc(OC(=O)N2CCC(NC(=O)Cc3ccc(Cl)cc3)CC2)cc1)C(=O)O` [Example 50, (2S)-3-(4-{[(4-{[2-(4-Chlorophenyl)acetyl]amino}-1-piperidinyl)carbonyl]oxy}phenyl)-2-({(2S)-4-methyl-2-[(2-{[3-(1-piperidinylcarbonyl)-2-naphthyl]oxy}acetyl)amino]pentanoyl}amino)propanoic acid] showed an IC50 of 25.1 nM. Compound `CC(C)C[C@H](NC(=O)COc1ccc2ccccc2c1Br)C(=O)N[C@@H](Cc1ccc(OC(=O)N2CCC(C(=O)N3CCCCC3)CC2)cc1)C(=O)O` [Example 32, (2S)-2-{[(2S)-2-({2-[(1-Bromo-2-naphthyl)oxy]acetyl}amino)-4-methylpentanoyl]amino}-3-[4-({[4-(1-piperidinylcarbonyl)-1-piperidinyl]carbonyl}oxy)phenyl]propanoic acid] had an IC50 of 24 nM.

For the compound `CC(C)C[C@H](NC(=O)COc1ccccc1C1CCCCC1)C(=O)N[C@@H](Cc1ccc(OC(=O)N2CCC(NC(=O)Cc3ccc(Cl)cc3)CC2)cc1)C(=O)O` [Example 45, (2S)-3-(4-{[(4-{[2-(4-Chlorophenyl)acetyl]amino}-1-piperidinyl)carbonyl]oxy}phenyl)-2-[((2S)-2-{[2-(2-cyclohexylphenoxy)acetyl]amino}-4-methylpentanoyl)amino]propanoic acid], half-maximal inhibition (IC50) was put at 57.5 nM. `CC(C)C[C@H](NC(=O)COc1ccccc1I)C(=O)N[C@@H](Cc1ccc(OC(=O)N2CCN(C(=O)c3ccco3)CC2)cc1)C(=O)O` [Example 41, (2S)-3-[4-({[4-(2-Furoyl)-1-piperazinyl]carbonyl}oxy)phenyl]-2-[((2S)-2-{[2-(2-iodophenoxy)acetyl]amino}-4-methylpentanoyl)amino]propanoic acid] showed a half-maximal inhibitory concentration (IC50) of 9.33 nM. The value for `CC(C)C[C@H](NC(=O)COc1ccccc1C(C)(C)C)C(=O)N[C@@H](Cc1ccc(OC(=O)N2CCC(C(=O)N3CCCCC3)CC2)cc1)C(=O)O` [Example 29, (2S)-2-{[(2S)-2-({2-[2-(Tert-butyl)phenoxy]acetyl}amino)-4-methylpentanoyl]amino}-3-[4-({[4-(1-piperidinylcarbonyl)-1-piperidinyl]carbonyl}oxy)phenyl]propanoic acid] was 16.2 nM. Compound `CC(C)C[C@H](NC(=O)COc1ccccc1C(=O)c1ccccc1)C(=O)N[C@@H](Cc1ccc(OC(=O)N2CCC(NC(=O)Cc3ccccc3)CC2)cc1)C(=O)O` [Example 1, (2S)-2-[((2S)-2-{[2-(2-Benzoylphenoxy)acetyl]amino}-4-methylpentanoyl)amino]-3-{4-[({4-[(2-phenylacetyl)amino]-1-piperidinyl}carbonyl)oxy]phenyl}propanoic acid] gave an IC50 of 13.2 nM. This IC50 and that of the compound before are within 1.5-fold of each other. Take `Cc1ccccc1OCC(=O)N[C@@H](CC(C)C)C(=O)N[C@@H](Cc1ccc(OC(=O)N2CCC(C(=O)N3CCCCC3)CC2)cc1)C(=O)O` [Example 30, (2S)-2-[((2S)-4-Methyl-2-{[2-(2-methylphenoxy)acetyl]amino}pentanoyl)amino]-3-[4-({[4-(1-piperidinylcarbonyl)-1-piperidinyl]carbonyl}oxy)phenyl]propanoic acid]: it took 5.75 nM to reach half-maximal inhibition (IC50). Compound `CC(C)C[C@H](NC(=O)COc1ccccc1I)C(=O)N[C@@H](Cc1ccc(OC(=O)N2CCC(NC(=O)CC3CCCCC3)CC2)cc1)C(=O)O` [Example 8, (2S)-3-{4-[({4-[(2-Cyclohexylacetyl)amino]-1-piperidinyl}carbonyl)oxy]phenyl}-2-[((2S)-2-{[2-(2-iodophenoxy)acetyl]amino}-4-methylpentanoyl)amino]propanoic acid] showed an IC50 of 42.7 nM. This IC50 is about 7.4-fold higher than that of the compound before. The compound `Cc1ccccc1OCC(=O)N[C@@H](CC(C)C)C(=O)N[C@@H](Cc1ccc(OC(=O)N2CCOCC2)cc1)C(=O)O` [Example 25, (2S)-2-[((2S)-4-Methyl-2-{[2-(2-methylphenoxy)acetyl]amino}pentanoyl)amino]-3-{4-[(4-morpholinylcarbonyl)oxy]phenyl}propanoic acid] had an IC50 of 3.16 nM. `CC(C)C[C@H](NC(=O)COc1ccccc1I)C(=O)N[C@@H](Cc1ccc(OC(=O)N2CCC(NC(=O)C(C3CCCCC3)C3CCCCC3)CC2)cc1)C(=O)O` [Example 9, (2S)-3-{4-[({4-[(2,2-Dicyclohexylacetyl)amino]-1-piperidinyl}carbonyl)oxy]phenyl}-2-[((2S)-2-{[2-(2-iodophenoxy)acetyl]amino}-4-methylpentanoyl)amino]propanoic acid] showed a 50% inhibitory concentration (IC50) of 26.3 nM. `CC(C)C[C@H](NC(=O)COc1ccccc1C(=O)c1ccccc1)C(=O)N[C@@H](Cc1ccc(OC(=O)N2CCC(C(N)=O)CC2)cc1)C(=O)O` [Example 6, (2S)-3-[4-({[4-(Aminocarbonyl)-1-piperidinyl]carbonyl}oxy)phenyl]-2-[((2S)-2-{[2-(2-benzoylphenoxy)acetyl]amino}-4-methylpentanoyl)amino]propanoic acid]: the IC50 was 5.62 nM.

Take `CCCc1ccccc1OCC(=O)N[C@@H](CC(C)C)C(=O)N[C@@H](Cc1ccc(OC(=O)N2CCOCC2)cc1)C(=O)O` [Example 37, (2S)-2-[((2S)-4-Methyl-2-{[2-(2-propylphenoxy)acetyl]amino}pentanoyl)amino]-3-{4-[(4-morpholinylcarbonyl)oxy]phenyl}propanoic acid]: it took 5.75 nM to reach half-maximal inhibition (IC50). The IC50 values of the last two compounds are within 1.5-fold of each other.

As usually defined, the IC50 is the concentration needed to halve the response being measured. A low value points to higher potency.
